Laboratory results taken from article doi:10.1101/2024.08.19.608619, “Discovery of potent SARS-CoV-2 nsp3 macrodomain inhibitors uncovers lack of translation to cellular antiviral response” (bioRxiv, 2024).
Where two headings read alike, the source gives them in different places.

Assays:
Experiment in all cases: biochemical
Set-up in all cases: In vitro kinase panel profiling, per cent remaining kinase activity at 10 uM
CDK7/cyclinH/MAT1(h) = CDK7/cyclinH/MAT1(h) (Homo sapiens, UniProt P50613); conditions: atp_concentration=90, read-out: % of control remaining
CDK7/cyclinH/MAT1(h), sequence (P50613 whole entry): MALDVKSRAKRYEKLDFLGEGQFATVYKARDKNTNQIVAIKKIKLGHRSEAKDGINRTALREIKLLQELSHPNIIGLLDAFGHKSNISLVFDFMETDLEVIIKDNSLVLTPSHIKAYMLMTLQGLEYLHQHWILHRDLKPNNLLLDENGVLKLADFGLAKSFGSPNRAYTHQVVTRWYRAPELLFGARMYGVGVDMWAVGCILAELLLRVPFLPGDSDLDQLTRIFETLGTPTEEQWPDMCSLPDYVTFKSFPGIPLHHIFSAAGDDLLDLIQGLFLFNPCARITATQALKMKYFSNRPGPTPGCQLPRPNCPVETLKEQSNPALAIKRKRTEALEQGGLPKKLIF
CDK7/cyclinH/MAT1(h), sequence (P51946 whole entry partner): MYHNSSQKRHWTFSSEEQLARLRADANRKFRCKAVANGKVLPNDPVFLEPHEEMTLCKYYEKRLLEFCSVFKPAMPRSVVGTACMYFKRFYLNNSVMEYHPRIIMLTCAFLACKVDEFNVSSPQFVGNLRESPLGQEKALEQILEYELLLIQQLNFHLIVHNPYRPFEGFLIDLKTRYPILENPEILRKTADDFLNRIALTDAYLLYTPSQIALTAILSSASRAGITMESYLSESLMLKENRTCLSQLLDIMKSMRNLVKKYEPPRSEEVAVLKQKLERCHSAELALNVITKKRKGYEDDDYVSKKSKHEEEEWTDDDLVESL
CDK7/cyclinH/MAT1(h), sequence (P51948 whole entry partner): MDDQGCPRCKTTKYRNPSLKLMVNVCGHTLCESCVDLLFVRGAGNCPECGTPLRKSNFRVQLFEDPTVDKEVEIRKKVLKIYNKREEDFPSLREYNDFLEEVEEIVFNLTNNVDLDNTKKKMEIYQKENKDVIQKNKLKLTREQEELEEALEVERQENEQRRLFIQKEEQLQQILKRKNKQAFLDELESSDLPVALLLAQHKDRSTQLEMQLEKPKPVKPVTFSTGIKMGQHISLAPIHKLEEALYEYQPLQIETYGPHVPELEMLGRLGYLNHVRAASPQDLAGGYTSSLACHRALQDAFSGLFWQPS
Source text: (§1) We derisk potential for off-target activity by profiling the compound in a CEREP panel, a standard secondary pharmacology assessment, as well as a kinase panel to derisk a potential hinge-binding motif in our leads, and a PARP panel to derisk activity against human […]. Reassuringly, the compounds are selective, with the only off-targets being moderate human CHRM2 and KOR receptors activity associated with ASAP-0011198.

CK2α2(h) = molecular target: T1, CK2α2(h) (Homo sapiens, UniProt P19784); conditions: atp_concentration=10, read-out: % of control remaining
T1 construct: gene CSNK2A2
T1 sequence (P19784 whole entry): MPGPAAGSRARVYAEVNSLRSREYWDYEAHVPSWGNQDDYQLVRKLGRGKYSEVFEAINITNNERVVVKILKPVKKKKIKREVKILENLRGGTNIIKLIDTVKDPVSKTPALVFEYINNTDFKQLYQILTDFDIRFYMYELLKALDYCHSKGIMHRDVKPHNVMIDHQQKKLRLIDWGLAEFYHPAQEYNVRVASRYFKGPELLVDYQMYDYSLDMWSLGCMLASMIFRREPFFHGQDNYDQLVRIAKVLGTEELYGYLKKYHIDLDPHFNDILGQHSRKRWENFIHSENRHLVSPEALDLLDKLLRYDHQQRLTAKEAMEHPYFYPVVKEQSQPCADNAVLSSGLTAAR
Source text: as §1

EGFR(h) = EGFR(h) (Homo sapiens, UniProt P00533); conditions: atp_concentration=10, read-out: % of control remaining
EGFR(h), sequence (P00533 whole entry): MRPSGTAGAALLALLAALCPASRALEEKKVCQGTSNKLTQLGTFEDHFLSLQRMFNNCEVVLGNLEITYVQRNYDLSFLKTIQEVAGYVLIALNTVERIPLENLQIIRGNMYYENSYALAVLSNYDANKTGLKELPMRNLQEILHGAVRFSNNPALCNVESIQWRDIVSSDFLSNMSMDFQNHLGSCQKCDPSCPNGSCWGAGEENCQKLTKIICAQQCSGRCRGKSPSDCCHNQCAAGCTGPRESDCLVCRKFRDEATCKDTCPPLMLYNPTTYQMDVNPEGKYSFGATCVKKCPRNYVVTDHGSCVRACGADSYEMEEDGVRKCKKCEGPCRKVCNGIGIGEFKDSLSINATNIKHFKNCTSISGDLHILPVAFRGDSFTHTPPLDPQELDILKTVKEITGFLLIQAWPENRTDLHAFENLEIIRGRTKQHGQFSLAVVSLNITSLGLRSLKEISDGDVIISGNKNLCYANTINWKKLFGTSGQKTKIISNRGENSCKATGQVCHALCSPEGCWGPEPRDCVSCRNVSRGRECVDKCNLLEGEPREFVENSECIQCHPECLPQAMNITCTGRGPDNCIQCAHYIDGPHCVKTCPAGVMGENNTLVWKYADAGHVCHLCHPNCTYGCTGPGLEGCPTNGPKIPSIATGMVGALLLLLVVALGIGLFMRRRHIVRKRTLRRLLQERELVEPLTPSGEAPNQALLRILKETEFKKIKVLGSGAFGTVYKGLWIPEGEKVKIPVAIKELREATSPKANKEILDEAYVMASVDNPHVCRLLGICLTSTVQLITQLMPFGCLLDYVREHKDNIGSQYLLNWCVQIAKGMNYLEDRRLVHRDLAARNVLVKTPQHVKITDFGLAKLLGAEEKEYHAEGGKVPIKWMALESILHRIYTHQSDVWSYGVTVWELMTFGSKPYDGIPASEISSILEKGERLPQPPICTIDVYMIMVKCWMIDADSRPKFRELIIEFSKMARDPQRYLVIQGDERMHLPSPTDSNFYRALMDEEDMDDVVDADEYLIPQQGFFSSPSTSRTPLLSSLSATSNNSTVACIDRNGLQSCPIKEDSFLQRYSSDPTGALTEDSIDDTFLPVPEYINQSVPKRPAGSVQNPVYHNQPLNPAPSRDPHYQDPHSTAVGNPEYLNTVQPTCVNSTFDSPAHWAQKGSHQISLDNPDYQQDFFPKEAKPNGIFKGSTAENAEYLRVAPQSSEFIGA
Source text: as §1

EphA5(h) = EphA5(h) (Homo sapiens, UniProt P54756); conditions: atp_concentration=10, read-out: % of control remaining
Source text: as §1

IRAK4(h) = molecular target: T2, IRAK4(h) (Homo sapiens, UniProt Q9NWZ3); conditions: atp_concentration=200, read-out: % of control remaining
T2 sequence (Q9NWZ3 1-460): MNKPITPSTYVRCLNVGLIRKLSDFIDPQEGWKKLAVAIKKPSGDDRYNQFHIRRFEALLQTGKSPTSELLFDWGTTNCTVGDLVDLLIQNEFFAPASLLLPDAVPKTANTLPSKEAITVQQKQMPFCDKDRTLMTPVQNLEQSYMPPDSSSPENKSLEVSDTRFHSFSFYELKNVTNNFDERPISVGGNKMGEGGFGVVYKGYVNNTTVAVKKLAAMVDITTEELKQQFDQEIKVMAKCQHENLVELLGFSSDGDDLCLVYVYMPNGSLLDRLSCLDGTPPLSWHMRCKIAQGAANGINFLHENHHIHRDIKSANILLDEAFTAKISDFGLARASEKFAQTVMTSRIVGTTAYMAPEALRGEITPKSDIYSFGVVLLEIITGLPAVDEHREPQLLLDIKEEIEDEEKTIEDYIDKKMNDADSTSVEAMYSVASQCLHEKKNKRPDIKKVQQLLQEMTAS
Source text: as §1

JAK2(h) = JAK2(h) (Homo sapiens, UniProt O60674); conditions: atp_concentration=45, read-out: % of control remaining
JAK2(h), sequence (O60674 whole entry): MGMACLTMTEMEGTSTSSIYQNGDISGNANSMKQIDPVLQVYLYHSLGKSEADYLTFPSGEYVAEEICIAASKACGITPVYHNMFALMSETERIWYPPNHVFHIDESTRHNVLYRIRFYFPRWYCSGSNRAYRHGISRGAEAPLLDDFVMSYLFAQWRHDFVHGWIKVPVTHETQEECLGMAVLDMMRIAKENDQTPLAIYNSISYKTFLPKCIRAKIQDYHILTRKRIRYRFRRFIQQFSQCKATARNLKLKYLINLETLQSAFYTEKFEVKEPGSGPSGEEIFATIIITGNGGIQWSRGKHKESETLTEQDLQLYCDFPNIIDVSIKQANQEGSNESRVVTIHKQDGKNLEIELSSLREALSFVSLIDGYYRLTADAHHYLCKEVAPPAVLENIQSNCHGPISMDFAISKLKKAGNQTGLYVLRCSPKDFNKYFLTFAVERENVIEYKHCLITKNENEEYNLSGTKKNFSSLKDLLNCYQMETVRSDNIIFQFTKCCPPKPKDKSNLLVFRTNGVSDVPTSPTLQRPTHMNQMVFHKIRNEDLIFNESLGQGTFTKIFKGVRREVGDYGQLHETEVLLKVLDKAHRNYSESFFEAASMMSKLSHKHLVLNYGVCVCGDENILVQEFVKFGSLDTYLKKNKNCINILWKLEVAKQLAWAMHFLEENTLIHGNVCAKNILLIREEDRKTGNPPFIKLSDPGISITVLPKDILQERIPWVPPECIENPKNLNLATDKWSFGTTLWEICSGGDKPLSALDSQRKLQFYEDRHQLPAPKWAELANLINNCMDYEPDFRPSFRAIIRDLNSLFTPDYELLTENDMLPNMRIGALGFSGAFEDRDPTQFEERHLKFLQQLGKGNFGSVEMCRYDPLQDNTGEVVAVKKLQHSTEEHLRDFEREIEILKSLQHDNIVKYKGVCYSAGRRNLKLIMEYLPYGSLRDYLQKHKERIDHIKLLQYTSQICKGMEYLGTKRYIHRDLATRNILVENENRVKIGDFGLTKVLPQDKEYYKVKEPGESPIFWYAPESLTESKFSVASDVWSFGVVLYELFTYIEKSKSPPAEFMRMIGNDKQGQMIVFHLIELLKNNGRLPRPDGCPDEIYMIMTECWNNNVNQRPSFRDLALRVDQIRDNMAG
Source text: as §1

MEK1(h) = molecular target: T3, MEK1(h) (Homo sapiens, UniProt Q02750); conditions: atp_concentration=10, read-out: % of control remaining
T3 construct: gene MAP2K1
T3 sequence (Q02750 whole entry): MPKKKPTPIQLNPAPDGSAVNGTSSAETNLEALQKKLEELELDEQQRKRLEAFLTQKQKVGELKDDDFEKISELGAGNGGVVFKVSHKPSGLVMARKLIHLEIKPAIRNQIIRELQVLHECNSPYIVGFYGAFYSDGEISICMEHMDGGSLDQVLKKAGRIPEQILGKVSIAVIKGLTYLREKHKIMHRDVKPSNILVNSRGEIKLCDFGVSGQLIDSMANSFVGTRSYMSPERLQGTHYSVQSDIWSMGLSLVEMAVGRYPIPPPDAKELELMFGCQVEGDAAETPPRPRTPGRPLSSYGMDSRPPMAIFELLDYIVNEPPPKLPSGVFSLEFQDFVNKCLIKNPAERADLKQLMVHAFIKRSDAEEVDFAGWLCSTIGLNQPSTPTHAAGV
Source text: as §1

PI3 Kinase (p120γ)(h) = molecular target: T4, PI3 Kinase (p120γ)(h) (Homo sapiens, UniProt P48736); conditions: atp_concentration=100, read-out: % of control remaining
T4 construct: gene PIK3CG
Source text: as §1

PKA(h) = molecular target: T5, PKA(h) (Homo sapiens, UniProt P17612); conditions: atp_concentration=10, read-out: % of control remaining
T5 construct: gene PRKACA
Source text: as §1

PKBα(h) = molecular target: T6, PKBα(h) (Homo sapiens, UniProt P31749); conditions: atp_concentration=155, read-out: % of control remaining
T6 construct: gene AKT1
T6 sequence (P31749 whole entry): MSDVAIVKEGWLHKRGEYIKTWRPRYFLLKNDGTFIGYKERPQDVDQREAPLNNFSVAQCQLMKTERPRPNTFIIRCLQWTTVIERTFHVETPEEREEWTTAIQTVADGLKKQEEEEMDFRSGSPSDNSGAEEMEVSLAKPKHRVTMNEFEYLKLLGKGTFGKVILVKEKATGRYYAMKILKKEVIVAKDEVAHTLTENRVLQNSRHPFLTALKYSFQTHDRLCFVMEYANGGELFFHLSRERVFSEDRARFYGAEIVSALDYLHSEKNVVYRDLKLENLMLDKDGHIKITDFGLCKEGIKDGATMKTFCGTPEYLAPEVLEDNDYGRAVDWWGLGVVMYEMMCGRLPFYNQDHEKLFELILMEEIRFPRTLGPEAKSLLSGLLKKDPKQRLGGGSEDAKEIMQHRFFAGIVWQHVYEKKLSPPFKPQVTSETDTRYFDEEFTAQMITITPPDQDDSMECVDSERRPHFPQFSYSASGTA
Source text: as §1

Pim-1(h) = molecular target: T7, Pim-1(h) (Homo sapiens, UniProt P11309); conditions: atp_concentration=90, read-out: % of control remaining
T7 construct: gene PIM1
T7 sequence (P11309 whole entry): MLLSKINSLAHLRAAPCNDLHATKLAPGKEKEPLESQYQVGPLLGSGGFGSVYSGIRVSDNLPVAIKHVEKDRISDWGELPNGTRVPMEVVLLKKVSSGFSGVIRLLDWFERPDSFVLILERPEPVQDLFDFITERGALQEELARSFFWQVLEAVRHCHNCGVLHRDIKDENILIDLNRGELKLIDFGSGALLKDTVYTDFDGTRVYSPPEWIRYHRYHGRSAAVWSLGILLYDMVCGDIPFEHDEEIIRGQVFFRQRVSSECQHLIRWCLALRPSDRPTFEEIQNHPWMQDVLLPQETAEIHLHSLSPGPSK
Source text: as §1

TAK1(h) = molecular target: T8, TAK1(h) (Homo sapiens, UniProt O43318); conditions: atp_concentration=45, read-out: % of control remaining
T8 construct: gene MAP3K7
T8 sequence (O43318 1-606): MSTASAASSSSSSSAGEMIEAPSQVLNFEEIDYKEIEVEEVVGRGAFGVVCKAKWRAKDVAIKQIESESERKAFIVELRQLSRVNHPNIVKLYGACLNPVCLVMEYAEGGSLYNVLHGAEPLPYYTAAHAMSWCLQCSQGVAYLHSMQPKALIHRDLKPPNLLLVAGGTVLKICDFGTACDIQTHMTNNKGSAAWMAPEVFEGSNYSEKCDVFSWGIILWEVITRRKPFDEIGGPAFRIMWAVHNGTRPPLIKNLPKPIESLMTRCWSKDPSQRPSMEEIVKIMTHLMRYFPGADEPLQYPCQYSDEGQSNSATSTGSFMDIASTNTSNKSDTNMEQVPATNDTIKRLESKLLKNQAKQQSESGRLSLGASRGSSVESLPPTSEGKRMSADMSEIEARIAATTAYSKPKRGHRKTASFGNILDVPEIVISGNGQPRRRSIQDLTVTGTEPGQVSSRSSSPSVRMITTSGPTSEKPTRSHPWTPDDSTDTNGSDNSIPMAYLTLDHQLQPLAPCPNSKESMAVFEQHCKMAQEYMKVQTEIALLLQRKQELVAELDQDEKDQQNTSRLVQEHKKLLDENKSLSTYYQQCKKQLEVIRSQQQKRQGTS
Source text: as §1

Compound: CC(C)C(Nc1ncnc2[nH]c(C(=O)NC3CCN(C)C3)cc12)c1ccc2c(c1)S(=O)(=O)CCC2 (stereo not drawn) [ASAP-0011198]
- remaining activity at 10 µM (CDK7/cyclinH/MAT1(h); batch_name=ASAP-0011198-002): 101%
- remaining activity at 10 µM (CK2α2(h); batch_name=ASAP-0011198-002): 98%
- remaining activity at 10 µM (EGFR(h); batch_name=ASAP-0011198-002): 102%
- remaining activity at 10 µM (EphA5(h); batch_name=ASAP-0011198-002): 100%
- remaining activity at 10 µM (IRAK4(h); batch_name=ASAP-0011198-002): 105%
- remaining activity at 10 µM (JAK2(h); batch_name=ASAP-0011198-002): 106%
- remaining activity at 10 µM (MEK1(h); batch_name=ASAP-0011198-002): 107%
- remaining activity at 10 µM (PI3 Kinase (p120γ)(h); batch_name=ASAP-0011198-002): 97%
- remaining activity at 10 µM (PKA(h); batch_name=ASAP-0011198-002): 89%
- remaining activity at 10 µM (PKBα(h); batch_name=ASAP-0011198-002): 88%
- remaining activity at 10 µM (Pim-1(h); batch_name=ASAP-0011198-002): 97%
- remaining activity at 10 µM (TAK1(h); batch_name=ASAP-0011198-002): 100%

Compound: Cn1ncc(-c2cc3c(N[C@@H](c4ccc5c(n4)OCCO5)C(C)(C)C)ncnc3[nH]2)c1C#N [ASAP-0011221]
- remaining activity at 10 µM (CDK7/cyclinH/MAT1(h); batch_name=ASAP-0011221-002): 108%
- remaining activity at 10 µM (CK2α2(h); batch_name=ASAP-0011221-002): 92%
- remaining activity at 10 µM (EGFR(h); batch_name=ASAP-0011221-002): 99%
- remaining activity at 10 µM (EphA5(h); batch_name=ASAP-0011221-002): 102%
- remaining activity at 10 µM (IRAK4(h); batch_name=ASAP-0011221-002): 132%
- remaining activity at 10 µM (JAK2(h); batch_name=ASAP-0011221-002): 140%
- remaining activity at 10 µM (MEK1(h); batch_name=ASAP-0011221-002): 98%
- remaining activity at 10 µM (PI3 Kinase (p120γ)(h); batch_name=ASAP-0011221-002): 88%
- remaining activity at 10 µM (PKA(h); batch_name=ASAP-0011221-002): 95%
- remaining activity at 10 µM (PKBα(h); batch_name=ASAP-0011221-002): 103%
- remaining activity at 10 µM (Pim-1(h); batch_name=ASAP-0011221-002): 107%
- remaining activity at 10 µM (TAK1(h); batch_name=ASAP-0011221-002): 95%

Compound: Cc1nn(C)cc1-c1cc2c(NC(c3ccc4c(c3)S(=O)(=O)CCC4)C(C)C)ncnc2[nH]1 (stereo not drawn) [ASAP-0011446]
- remaining activity at 10 µM (CDK7/cyclinH/MAT1(h); batch_name=ASAP-0011446-002): 93%
- remaining activity at 10 µM (CK2α2(h); batch_name=ASAP-0011446-002): 92%
- remaining activity at 10 µM (EGFR(h); batch_name=ASAP-0011446-002): 87%
- remaining activity at 10 µM (EphA5(h); batch_name=ASAP-0011446-002): 74%
- remaining activity at 10 µM (IRAK4(h); batch_name=ASAP-0011446-002): 107%
- remaining activity at 10 µM (JAK2(h); batch_name=ASAP-0011446-002): 111%
- remaining activity at 10 µM (MEK1(h); batch_name=ASAP-0011446-002): 99%
- remaining activity at 10 µM (PI3 Kinase (p120γ)(h); batch_name=ASAP-0011446-002): 96%
- remaining activity at 10 µM (PKA(h); batch_name=ASAP-0011446-002): 95%
- remaining activity at 10 µM (PKBα(h); batch_name=ASAP-0011446-002): 91%
- remaining activity at 10 µM (Pim-1(h); batch_name=ASAP-0011446-002): 95%
- remaining activity at 10 µM (TAK1(h); batch_name=ASAP-0011446-002): 100%

Compound: C[C@H](C(=O)O)[C@@H](NC(=O)c1ncnc2[nH]ccc12)c1ccc(Br)cc1 [ASAP-0014722]
- remaining activity at 10 µM (CDK7/cyclinH/MAT1(h); batch_name=ASAP-0014722-002): 99%
- remaining activity at 10 µM (CK2α2(h); batch_name=ASAP-0014722-002): 91%
- remaining activity at 10 µM (EGFR(h); batch_name=ASAP-0014722-002): 93%
- remaining activity at 10 µM (EphA5(h); batch_name=ASAP-0014722-002): 99%
- remaining activity at 10 µM (IRAK4(h); batch_name=ASAP-0014722-002): 106%
- remaining activity at 10 µM (JAK2(h); batch_name=ASAP-0014722-002): 99%
- remaining activity at 10 µM (MEK1(h); batch_name=ASAP-0014722-002): 89%
- remaining activity at 10 µM (PI3 Kinase (p120γ)(h); batch_name=ASAP-0014722-002): 97%
- remaining activity at 10 µM (PKA(h); batch_name=ASAP-0014722-002): 87%
- remaining activity at 10 µM (PKBα(h); batch_name=ASAP-0014722-002): 95%
- remaining activity at 10 µM (Pim-1(h); batch_name=ASAP-0014722-002): 95%
- remaining activity at 10 µM (TAK1(h); batch_name=ASAP-0014722-002): 95%

Compound: COc1ccc([C@H](Cc2nnn[nH]2)NC(=O)c2ncnc3[nH]ccc23)cc1 [ASAP-0015381]
- remaining activity at 10 µM (CDK7/cyclinH/MAT1(h); batch_name=ASAP-0015381-001): 107%
- remaining activity at 10 µM (CK2α2(h); batch_name=ASAP-0015381-001): 93%
- remaining activity at 10 µM (EGFR(h); batch_name=ASAP-0015381-001): 97%
- remaining activity at 10 µM (EphA5(h); batch_name=ASAP-0015381-001): 102%
- remaining activity at 10 µM (IRAK4(h); batch_name=ASAP-0015381-001): 109%
- remaining activity at 10 µM (JAK2(h); batch_name=ASAP-0015381-001): 116%
- remaining activity at 10 µM (MEK1(h); batch_name=ASAP-0015381-001): 100%
- remaining activity at 10 µM (PI3 Kinase (p120γ)(h); batch_name=ASAP-0015381-001): 88%
- remaining activity at 10 µM (PKA(h); batch_name=ASAP-0015381-001): 88%
- remaining activity at 10 µM (PKBα(h); batch_name=ASAP-0015381-001): 97%
- remaining activity at 10 µM (Pim-1(h); batch_name=ASAP-0015381-001): 99%
- remaining activity at 10 µM (TAK1(h); batch_name=ASAP-0015381-001): 99%
